In article PMC10575282, “Elettaria cardamomum (L.) Maton Essential Oil: An Interesting Source of Bioactive Specialized Metabolites as Inhibitors of Acetylcholinesterase and Butyrylcholinesterase” (Plants, 2023):

Legend:
[1] = molecular target: T1, acetylcholinesterase (AChE) from Electrophorus electricus (Electrophorus electricus, UniProt O42275); assay: biochemical; assay type: biochemical; conditions: for AChE Inhibition (%): fractions/compounds at the concentrations in which they are present in EO, average of three assays; for IC50 AChE: ± standard deviation, n = 3
T1 construct: purchased Merck Life Science S.r.l; (Milan, Italy)
T1 sequence (O42275 24-633): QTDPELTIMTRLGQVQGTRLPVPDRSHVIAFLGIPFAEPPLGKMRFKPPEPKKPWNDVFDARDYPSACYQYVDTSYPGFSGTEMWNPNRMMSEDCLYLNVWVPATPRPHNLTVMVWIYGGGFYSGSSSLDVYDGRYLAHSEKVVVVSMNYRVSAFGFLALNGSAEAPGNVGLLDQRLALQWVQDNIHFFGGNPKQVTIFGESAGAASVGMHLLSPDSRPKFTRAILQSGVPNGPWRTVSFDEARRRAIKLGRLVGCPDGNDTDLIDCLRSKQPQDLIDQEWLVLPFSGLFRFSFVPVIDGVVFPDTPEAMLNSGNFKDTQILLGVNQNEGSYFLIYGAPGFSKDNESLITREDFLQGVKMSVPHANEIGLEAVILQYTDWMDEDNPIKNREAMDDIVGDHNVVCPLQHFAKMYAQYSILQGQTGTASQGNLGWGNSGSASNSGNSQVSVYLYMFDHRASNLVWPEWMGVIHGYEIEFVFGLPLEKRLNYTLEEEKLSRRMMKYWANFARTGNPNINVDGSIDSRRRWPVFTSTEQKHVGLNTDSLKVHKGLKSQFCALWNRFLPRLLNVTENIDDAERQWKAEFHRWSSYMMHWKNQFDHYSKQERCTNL
Method: (§1) The protocol used in this study was that of Rhee et al., with slight modifications. The following buffers were used: buffer A (50 mM Tris-HCl pH 8), buffer B (50 mM Tris-HCl pH 8, with the addition of 0.1% of bovine albumin and 0.1% of TWEEN20), and buffer C (50 mM Tris-HCl pH 8, with the addition of 0.1 M of NaCl and 0.02 M of MgCl2 6H2O). The enzyme solution of 0.22 U/mL was prepared in buffer B. The acetylthiocholine iodide (ATCI) solution of 1.5 mM was prepared in Millipore water, while the butyrylthiocholine iodide (BTCI) solution was prepared in buffer A. Ellman’s reagent solution at 3 mM was prepared in buffer C.
(§2) The reaction mixture was incubated at 30 °C for 6 min. The absorbance values were measured at 405 nm after incubation. […] The control and sample blank solutions were prepared by replacing 150 µL of the enzyme solution with 150 µL of buffer A.
(§3) The percentage of the AChE or BChE inhibition was measured according to the equation below:% Inhibition = ΔA (Control) − ΔA (Sample)/ΔA (Control) × 100 ΔA (Control) = A412 (Control) − A412 (Control Blank) ΔA(Sample) = A412 (Sample) − A412 (Sample Blank)
(§4) The concentration–response curve was determined for each inhibitor by plotting the inhibitory activity against AChE or BChE as a function of the inhibitor concentration in the reaction mixture.
(§5) The Microsoft Excel programme was used for the Anova test. For the IC50 calculation, an online programme from AAT Bioquest was used (https://www.aatbio.com/tools/ic50-calculator, accessed on 10 May 2023).

[2] = molecular target: T2, butyrylcholinesterase (BChE) from equine serum (Equus caballus, UniProt P81908); assay: biochemical; assay type: biochemical; conditions: for BChE Inhibition (%): fractions/compounds at the concentrations in which they are present in EO, average of three assays
T2 construct: butyrylcholinesterase (BChE) from equine serum; purchased Merck Life Science S.r.l; (Milan, Italy); host or cells: equine serum
T2 sequence (P81908 whole entry): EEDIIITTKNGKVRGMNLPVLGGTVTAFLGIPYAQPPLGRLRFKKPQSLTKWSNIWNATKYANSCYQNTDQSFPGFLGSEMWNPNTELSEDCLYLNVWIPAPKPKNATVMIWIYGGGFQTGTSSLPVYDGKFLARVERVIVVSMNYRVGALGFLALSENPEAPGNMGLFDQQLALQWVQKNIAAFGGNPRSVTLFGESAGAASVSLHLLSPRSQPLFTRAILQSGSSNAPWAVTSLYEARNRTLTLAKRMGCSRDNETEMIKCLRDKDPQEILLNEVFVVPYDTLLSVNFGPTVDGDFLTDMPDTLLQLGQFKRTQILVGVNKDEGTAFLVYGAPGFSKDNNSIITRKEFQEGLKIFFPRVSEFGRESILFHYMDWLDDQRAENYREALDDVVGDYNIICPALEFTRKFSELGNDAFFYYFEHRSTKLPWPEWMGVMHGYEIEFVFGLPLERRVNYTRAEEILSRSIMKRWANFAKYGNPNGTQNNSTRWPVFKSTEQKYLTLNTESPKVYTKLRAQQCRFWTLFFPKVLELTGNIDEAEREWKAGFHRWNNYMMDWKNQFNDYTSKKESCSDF
Method: as §1, §2, §3, §4, §5

[3] = system: BChE; design: method as in doi:10.1016/j.jff.2020.103892; conditions: cited from earlier work
[4] = system: AChE; conditions: cited from earlier work

**Q.** Which “AChE Inhibition (%)” value [1] does the source give for `CC(=O)OC(C)(C)C1CC=C(C)CC1` (stereo not drawn) [α-terpinyl acetate] here?
**A.** 17.0%

**Q.** And the “IC50 AChE” value [1]?
**A.** 50% inhibition was never achieved

**Q.** What about the “IC50 AChE” value ([1]; listed as α-Terpinyl acetate) of the same molecule?
**A.** Activity lower than 50%

**Q.** What about the “BChE Inhibition (%)” value [2] of the same molecule?
**A.** 39.0%

**Q.** And the IC50 ([2]; ± standard deviation, n = 3)?
**A.** 112 µM

**Q.** And the “Type of inhibition of BChE” value [3]?
**A.** mixed inhibition

**Q.** What about the “Type of inhibition of AChE” value [4] of the same molecule?
**A.** competitive inhibition

**Q.** What does the source list for `C=CC(C)(O)CCC=C(C)C` (stereo not shown) [Linalool, linalool]?
**A.** BChE Inhibition (%) [2]: 5.0%; BChE Inhibition (%) ([2]; listed as linalool): active

**Q.** Which results are given for `C=CC(C)(CCC=C(C)C)OC(C)=O` (stereo not shown) [Linalyl acetate, linalyl acetate]?
**A.** BChE Inhibition (%) [2]: 10.3%; BChE Inhibition (%) ([2]; listed as linalyl acetate): active

**Q.** With `CC12CCC(CC1)C(C)(C)O2` [1,8-cineole] as the molecule, how does the IC50 [1] read?
**A.** 91.4 µM

**Q.** And the “AChE Inhibition (%)” value [1]?
**A.** 55.4%

**Q.** And the “IC50 BChE” value ([2]; ± standard deviation, n = 3)?
**A.** inactive inhibitor of BChE

**Q.** And the “IC50 BChE” value ([2]; ± standard deviation, n = 3, listed as 1,8-Cineole)?
**A.** not active

**Q.** What about the AChE inhibition ([4]; mechanism still unclear) of the same molecule?
**A.** known to actively inhibit AChE
